The source of these data is patent US8138168B1 (Takeda Pharmaceutical Company Limited, priority 2007, dated 2012).

pIC50: −log10 of the molar value.

The experiment deals with T1, Recombinant human renin (Homo sapiens, UniProt P00797).
T1 construct: isolate the active form (residues 67-406); made in house; host or cells: FreeStyle 293-F cells (transient expression of pcDNA3.1(+)/hREN)
T1 sequence (P00797 67-406): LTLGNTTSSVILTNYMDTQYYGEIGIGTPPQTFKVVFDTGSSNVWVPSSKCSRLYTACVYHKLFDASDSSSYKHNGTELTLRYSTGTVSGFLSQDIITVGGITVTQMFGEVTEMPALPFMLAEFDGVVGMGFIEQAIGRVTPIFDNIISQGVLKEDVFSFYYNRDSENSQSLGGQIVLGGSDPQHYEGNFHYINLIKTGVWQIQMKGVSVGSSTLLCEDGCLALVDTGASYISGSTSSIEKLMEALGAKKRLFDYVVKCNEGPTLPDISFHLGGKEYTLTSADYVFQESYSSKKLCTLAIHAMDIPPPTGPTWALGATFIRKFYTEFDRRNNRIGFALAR
Description: In vitro enzymatic activity assay of renin inhibitors (fluorogenic peptide substrate). The note with it: read-out: IC50 of Exemplified Compounds Against Renin. It counts as biochemical. The procedure, abridged: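 Enzyme: recombinant human renin, 3 nM final, 10 min compound pre-incubation at 37 °C; buffer 50 mM Hepes pH 7.4 with 0.1 mg/mL BSA or extra 2% BSA; 5% DMSO.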
The pIC50 is the negative decadic logarithm of the IC50, by convention in mol/L. As for `COCCCn1c([C@@H]2CCCN(C(=O)C[C@H](N)Cc3ccc(-c4ccc(C(=O)NCC(O)CO)cc4)cc3)C2)nc2ccccc21` (stereo partly drawn) [Compound 181, 4′-((R)-2-amino-4-((R)-3-(1-(3-methoxypropyl)-1H-benzo[d]imidazol-2-yl)piperidin-1-yl)-4-oxobutyl)-N-(2,3-dihydroxypropyl)biphenyl-4-carboxamide], the pIC50 is above 7.00. In the case of `COCCCn1c([C@@H]2CCCN(C(=O)C[C@H](N)Cc3ccc(-c4ccc(C(=O)NCCO)cc4)cc3)C2)nc2ccccc21` [Compound 182, 4′-((R)-2-amino-4-((R)-3-(1-(3-methoxypropyl)-1H-benzo[d]imidazol-2-yl)piperidin-1-yl)-4-oxobutyl)-N-(2-hydroxyethyl)biphenyl-4-carboxamide] it was above 7.00; in that of `COCCCn1c([C@@H]2CCCN(C(=O)C[C@H](N)Cc3ccc(-c4ccc(C(=O)NC(C)(C)CO)cc4)cc3)C2)nc2ccccc21` [Compound 183, 4′-((R)-2-amino-4-((R)-3-(1-(3-methoxypropyl)-1H-benzo[d]imidazol-2-yl)piperidin-1-yl)-4-oxobutyl)-N-(1-hydroxy-2-methylpropan-2-yl)biphenyl-4-carboxamide], above 7.00. For `COCCCn1c([C@@H]2CCCN(C(=O)C[C@H](N)Cc3ccc(-c4ccc(C(=O)NC(CO)CO)cc4)cc3)C2)nc2ccccc21` [Compound 184, 4′-((R)-2-amino-4-((R)-3-(1-(3-methoxypropyl)-1H-benzo[d]imidazol-2-yl)piperidin-1-yl)-4-oxobutyl)-N-(1,3-dihydroxypropan-2-yl)biphenyl-4-carboxamide], the pIC50 is above 7.00. Under `COCCCn1c([C@@H]2CCCN(C(=O)C[C@H](N)Cc3ccc(-c4ccc(C(=O)N5CC[C@@H](O)C5)cc4)cc3)C2)nc2ccccc21` [Compound 185, (R)-3-amino-4-(4′-((R)-3-hydroxypyrrolidine-1-carbonyl)biphenyl-4-yl)-1-((R)-3-(1-(3-methoxypropyl)-1H-benzo[d]imidazol-2-yl)piperidin-1-yl)butan-1-one] stands above 7.00; under `COCCCn1c([C@@H]2CCCN(C(=O)C[C@H](N)Cc3ccc(-c4ccc(C(=O)N[C@H](C)CO)cc4)cc3)C2)nc2ccccc21` [Compound 186, 4′-((R)-2-amino-4-((R)-3-(1-(3-methoxypropyl)-1H-benzo[d]imidazol-2-yl)piperidin-1-yl)-4-oxobutyl)-N-((R)-1-hydroxypropan-2-yl)biphenyl-4-carboxamide], above 7.00; under `COCCCn1c([C@@H]2CCCN(C(=O)C[C@H](N)Cc3ccc(-c4ccc(C(=O)N[C@@H](C)CO)cc4)cc3)C2)nc2ccccc21` [Compound 187, 4′-((R)-2-amino-4-((R)-3-(1-(3-methoxypropyl)-1H-benzo[d]imidazol-2-yl)piperidin-1-yl)-4-oxobutyl)-N-((S)-1-hydroxypropan-2-yl)biphenyl-4-carboxamide], above 7.00. Consider `COCCCn1c([C@@H]2CCCN(C(=O)C[C@H](N)Cc3ccc(-c4ccc(C(=O)NCC(C)(C)O)cc4)cc3)C2)nc2ccccc21` [Compound 188, 4′-((R)-2-amino-4-((R)-3-(1-(3-methoxypropyl)-1H-benzo[d]imidazol-2-yl)piperidin-1-yl)-4-oxobutyl)-N-(2-hydroxy-2-methylpropyl)biphenyl-4-carboxamide], for which the pIC50 is above 7.00. In the case of `COCCCn1c([C@@H]2CCCN(C(=O)C[C@H](N)Cc3ccc(-c4ccc(C(=O)N5CCNC(=O)C5)cc4)cc3)C2)nc2ccccc21` [Compound 189, 4-(4′-((R)-2-amino-4-((R)-3-(1-(3-methoxypropyl)-1H-benzo[d]imidazol-2-yl)piperidin-1-yl)-4-oxobutyl)biphenylcarbonyl)piperazin-2-one] it was above 7.00; in that of `COCCCn1c([C@@H]2CCCN(C(=O)C[C@H](N)Cc3ccc(-c4ccc(C(=O)NCCO)c(F)c4)cc3)C2)nc2ccccc21` [Compound 190, 4′-((R)-2-amino-4-((R)-3-(1-(3-methoxypropyl)-1H-benzo[d]imidazol-2-yl)piperidin-1-yl)-4-oxobutyl)-3-fluoro-N-(2-hydroxyethyl)biphenyl-4-carboxamide], above 7.00; in that of `COCCCn1c([C@@H]2CCCN(C(=O)C[C@H](N)Cc3ccc(-c4ccc(C(=O)NCCOC)c(F)c4)cc3)C2)nc2ccccc21` [Compound 191, 4′-((R)-2-Amino-4-((R)-3-(1-(3-methoxypropyl)-1H-benzoldlimidazol-2-yl)piperidin-1-yl)-4-oxobutyl)-3-fluoro-N-(2-methoxyethyl)biphenyl-4-carboxamide], above 7.00. In the case of `COCCCn1c([C@@H]2CCCN(C(=O)C[C@H](N)Cc3ccc(-c4ccc(C(=O)NCCO)cc4Cl)cc3)C2)nc2ccccc21` [Compound 192, 4′-((R)-2-amino-4-((R)-3-(1-(3-methoxypropyl)-1H-benzo[d]imidazol-2-yl)piperidin-1-yl)-4-oxobutyl)-2-chloro-N-(2-hydroxyethyl)biphenyl-4-carboxamide] it was above 7.00. Consider `COCCCn1c([C@@H]2CCCN(C(=O)C[C@H](N)Cc3ccc(-c4ccc(C(=O)NCCOC)cc4Cl)cc3)C2)nc2ccccc21` [Compound 193, 4′-((R)-2-amino-4-((R)-3-(1-(3-methoxypropyl)-1H-benzo[d]imidazol-2-yl)piperidin-1-yl)-4-oxobutyl)-2-chloro-N-(2-methoxyethyl)biphenyl-4-carboxamide], for which the pIC50 is above 7.00. For `COCCCn1c([C@@H]2CCCN(C(=O)C[C@H](N)Cc3ccc(-c4ccc(C(=O)NCCO)nc4)cc3)C2)nc2ccccc21` [Compound 194, 5-(4-((R)-2-Amino-4-((R)-3-(1-(3-methoxypropyl)-1H-benzo[d]imidazol-2-yl)piperidin-1-yl)-4-oxobutyl)phenyl)-N-(2-hydroxyethyl)picolinamide], the pIC50 is above 7.00. Under `COCCCn1c([C@@H]2CCCN(C(=O)C[C@H](N)Cc3ccc(-c4ccc(C(=O)NCCOC)nc4)cc3)C2)nc2ccccc21` [Compound 195, 5-(4-((R)-2-amino-4-((R)-3-(1-(3-methoxypropyl)-1H-benzo[d]imidazol-2-yl)piperidin-yl)-4-oxobutyl)phenyl)-N-(2-methoxyethyl)picolinamide] stands above 7.00. Under `COCCCn1c([C@@H]2CCCN(C(=O)C[C@H](N)Cc3ccc(-c4ccc(NC(=O)COC)cc4)cc3)C2)nc2ccccc21` [Compound 197, N-(4′-((R)-2-amino-4-((R)-3-(1-(3-methoxypropyl)-1H-benzo[d]imidazol-2-yl)piperidin-1-yl)-4-oxobutyl)biphenyl-4-yl)-2-methoxyacetamide] stands above 7.00.

On to `COCCCn1c([C@@H]2CCCN(C(=O)C[C@H](N)Cc3ccc(-c4ccc(NC(=O)CO)cc4)cc3)C2)nc2ccccc21` [Compound 198, N-(4′-((R)-2-Amino-4-((R)-3-(1-(3-methoxypropyl)-1H-benzo[d]imidazol-2-yl)piperidin-1-yl)-4-oxobutyl)biphenyl-4-yl)-2-hydroxyacetamide], for which the pIC50 is above 7.00.

On to `COCCCn1c([C@@H]2CCCN(C(=O)C[C@H](N)Cc3ccc(-c4ccc(NC(=O)C(C)(C)O)cc4)cc3)C2)nc2ccccc21` [Compound 199, N-(4′-((R)-2-amino-4-((R)-3-(1-(3-methoxypropyl)-1H-benzo[d]imidazol-2-yl)piperidin-1-yl)-4-oxobutyl)biphenyl-4-yl)-2-hydroxy-2-methylpropanamide], for which the pIC50 is above 7.00. In the case of `CCOc1nc(-c2ccc(C[C@@H](N)CC(=O)N3CCC[C@@H](c4nc5ccccc5n4CCCOC)C3)cc2)cs1` [Compound 200, (R)-3-amino-4-(4-(2-ethoxythiazol-4-yl)phenyl)-1-((R)-3-(1-(3-methoxypropyl)-1H-benzo[d]imidazol-2-yl)piperidin-1-yl)butan-1-one] it was above 7.00; in that of `COCCCn1c([C@@H]2CCCN(C(=O)C[C@H](N)Cc3ccc(-c4csc(OC)n4)cc3)C2)nc2ccccc21` [Compound 201, (R)-3-amino-1-((R)-3-(1-(3-methoxypropyl)-1H-benzo[d]imidazol-2-yl)piperidin-1-yl)-4-(4-(2-methoxythiazol-4-yl)phenyl)butan-1-one], above 7.00.

With `COCCCn1c([C@@H]2CCCN(C(=O)C[C@H](N)Cc3ccc(-c4csc(C(C)C)n4)cc3)C2)nc2ccccc21` [Compound 202, (R)-3-amino-4-(4-(2-isopropylthiazol-4-yl)phenyl)-1-((R)-3-(1-(3-methoxypropyl)-1H-benzo[d]imidazol-2-yl)piperidin-1-yl)butan-1-one], the pIC50 is above 7.00. On to `COCCCn1c([C@@H]2CCCN(C(=O)C[C@H](N)Cc3ccc(C(=O)NC4CCCCC4)cc3)C2)nc2ccccc21` [Compound 203, 4-((R)-2-amino-4-((R)-3-(1-(3-methoxypropyl)-1H-benzo[d]imidazol-2-yl)piperidin-1-yl)-4-oxobutyl)-N-cyclohexylbenzamide], for which the pIC50 is 6.00 to 7.00. Under `COCCCn1c([C@@H]2CCCN(C(=O)C[C@H](N)Cc3ccc(-c4cnc(C)n4C)cc3)C2)nc2ccccc21` [Compound 204, (R)-3-amino-4-(4-(1,2-dimethyl-1H-imidazol-5-yl)phenyl)-1-((R)-3-(1-(3-methoxypropyl)-1H-benzo[d]imidazol-2-yl)piperidin-1-yl)butan-1-one] stands 6.00 to 7.00.
